Laboratory results reported in PubChem BioAssay (NCI).
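The compound was tested at five concentrations on cells cultured in 96-well plates, with a 48-hour exposure period. GI50 = concentration required for 50% inhibition of growth. The concentration for full growth arrest is given as TGI.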

Tests used:
Test in all cases: growth of human tumour cells (NCI), 48 h
CCRF-CEM leukemia = test system: CCRF-CEM leukemia
HCT-116 colon = test system: HCT-116 colon
K-562 leukemia = test system: K-562 leukemia
MDA-MB-435 = test system: MDA-MB-435
RXF 393 renal = test system: RXF 393 renal
SF-295 CNS = test system: SF-295 CNS
SF-539 CNS = test system: SF-539 CNS
SN12C renal = test system: SN12C renal
TK-10 renal = test system: TK-10 renal
UACC-257 melanoma = test system: UACC-257 melanoma

SMILES | TGI (CCRF-CEM leukemia) [µM] | TGI (HCT-116 colon) [µM] | TGI (K-562 leukemia) [µM] | TGI (MDA-MB-435) [µM] | TGI (RXF 393 renal) [µM] | TGI (SF-295 CNS) [µM] | TGI (SF-539 CNS) [µM] | TGI (SN12C renal) [µM] | TGI (TK-10 renal) [µM] | TGI (UACC-257 melanoma) [µM] | GI50 (CCRF-CEM leukemia) [µM] | GI50 (HCT-116 colon) [µM] | GI50 (K-562 leukemia) [µM] | GI50 (MDA-MB-435) [µM] | GI50 (RXF 393 renal) [µM] | GI50 (SF-295 CNS) [µM] | GI50 (SF-539 CNS) [µM] | GI50 (SN12C renal) [µM] | GI50 (TK-10 renal) [µM] | GI50 (UACC-257 melanoma) [µM]
CCOC(=O)C(=O)N=Nc1nc2c(O)c3ccccc3c(O)c2s1 | > 100 | 5.96 | 12.7 | 3.15 | 9.55 | 12.3 | 5.13 | 3.46 | 39.6 | 3.75 |  |  |  |  |  |  |  |  |  | 
OC(COc1cccc2ccccc12)CN1CCN(c2ccccc2)CC1 (stereo not drawn) | 53.2 | 27 | 34 | 30.5 | 32.9 | 26.6 | 33.9 | 31 | 26.9 | 30.1 | 17.9 | 13.4 | 13.7 | 15.5 | 18.2 | 12.6 | 18.1 | 16.4 | 13.6 | 16
O=C(c1cccs1)c1c(C(F)(F)F)n([O-])c2ccc(F)cc2[n+]1=O | 1.98 | 2.41 | 0.27 | 2.87 | 2.74 | 3.58 | 3.47 | 4.33 | 3.06 | 2.91 | 0.662 | 0.922 | 0.0904 | 1.31 | 1.2 | 1.76 | 1.67 | 1.58 | 1.41 | 1.53
CC(=O)OC[C@]12CC[C@@H]([C@@H](C)C(N)=O)[C@@H]1[C@H]1CC[C@@H]3[C@@]4(C)CC[C@H](OC(C)=O)C(C)(C)[C@@H]4CC[C@@]3(C)[C@]1(C)CC2 | 30 | 14.7 | 35.7 | 22.3 | 16.3 | 29.8 | 17.7 | 18.8 | 39.8 | 22.7 | 5.19 | 3.57 | 4.09 | 5.23 | 4.28 | 8.57 | 5.52 | 5.65 | 14.7 | 4.83
O=C1c2ccccc2-c2c1c1ccccc1c(=O)n2CCCN1CCN(CCCn2c3c(c4ccccc4c2=O)C(=O)c2ccccc2-3)CC1 | > 100 | > 100 | > 100 | > 100 | > 100 | > 86.1 | > 100 | > 92 | > 70.8 | > 100 | 13.8 | 35.3 | 42.7 | > 100 | 46.2 | 12.6 | > 70.6 | > 39.2 | 22.7 | > 100
NC(=O)C(NC=O)c1ccccc1 (stereo not drawn) | > 100 | > 100 | > 100 | > 100 | > 100 | > 100 | > 100 | > 100 | > 100 | > 100 |  |  |  |  |  |  |  |  |  | 
COC(=O)c1ccc([N+](=O)[O-])c(O)c1 | > 100 | > 100 | > 100 | > 100 | > 100 | > 100 | > 100 | > 100 | > 100 | > 100 |  |  |  |  |  |  |  |  |  | 
CCC1CC(=O)N(SCC(N)C(=O)O)C1=O (stereo not drawn) | > 100 | > 100 | > 100 | > 100 | > 100 | > 100 | > 100 | > 100 | > 100 | > 100 |  |  |  |  |  |  |  |  |  | 
C=C1CCC2C3(C)COC(c4ccc(SC)cc4)OC3CCC2(C)C1C/C=C1/C(=O)OCC1O (stereo not drawn) | 13.7 | 3.44 | 12.2 | 16.4 | 15.6 | 23.7 | 9.38 | 18.6 | 29.9 | 17.4 | 2.92 | 1.76 | 2.66 | 3.69 | 4.51 | 8.14 | 4.75 | 3.94 | 14 | 4.17
O=C(O)CCCCn1cnc2c(=S)nc[nH]c21 | > 100 | > 100 | > 100 | > 100 | > 100 | > 100 | > 100 | > 100 | > 100 | > 100 |  |  |  |  |  |  |  |  |  | 
CN1c2ccccc2S(=O)(=O)n2c(COc3ccc(Cl)cc3)nnc21 | > 100 | > 100 | > 100 | > 100 | > 100 | 92.7 | > 100 | > 100 | > 100 | > 100 |  |  |  |  |  |  |  |  |  | 
O=C1/C(=C\c2coc3ccccc3c2=O)c2ccccc2N1c1c(Cl)cccc1Cl | > 100 | 14.5 | > 100 | 9.69 | 5.11 | > 100 | > 100 | > 100 | > 100 | > 100 | 2.08 | 2.01 | 2.08 | 2.7 | 1.86 | 4.22 | 3.06 | 3.35 | 3.29 | 4.59
Cc1nc(/N=C(\N)NC(=O)Nc2ccccc2Cl)sc1C | > 53.2 |  | > 100 | 0.466 | 2.11 | 2.7 | 8.34 | > 100 | 6.41 | > 100 | 0.352 | 0.402 | 0.0861 | 0.0868 | 0.399 | 0.363 | 0.413 | 0.739 | 1.84 | 1.44
O=S1(=O)CS(=O)(=O)OCCCO1 | > 100 | > 100 | > 100 | > 100 | > 100 | > 100 | > 100 | > 100 | > 100 | > 100 |  |  |  |  |  |  |  |  |  | 
COc1ccc(/C=C\c2cc(OC)c(OC)c(OC)c2)cc1OC(=O)c1cccc(Cn2cc(CCOC(=O)c3cccc(Cn4nnc5c4C(=O)c4ccccc4C5=O)c3)nn2)c1 | > 100 | > 33.2 | > 100 |  | 13.6 | 4.36 | 0.134 | > 100 | 33.5 | > 100 | < 0.01 | < 0.01 | < 0.01 | < 0.01 | < 0.01 | 0.0316 | < 0.01 | < 0.0173 | 9.58 | 22.9
COc1c(CNC(=O)CCl)cc2[nH]c(C)cc2c1CNC(=O)CCl | > 100 | 15.7 | > 100 | 36.4 | 14.1 | 71.9 | 29.8 | 39.9 | 56.7 | 36.5 | 2.71 | 2.93 | 8.42 | 5.2 | 3.5 | 12.8 | 7.09 | 4.92 | 9.17 | 6.8
